Reference: US11045435B2, “Methods for treating ocular diseases” (NATUREWISE BIOTECH & MEDICALS CORPORATION, priority 2016, dated 2021)

Tests used:
ARPE-19 cells [1] = assay: MTT viability / proliferation of ARPE-19 cells; assay type: cell-based, human; conditions: 72 h
Description: ARPE-19 cells were grown in DMEM/F12 medium supplemented with 10% FBS, 100 units/ml penicillin G, and 100 μg/ml streptomycin sulfate. HUVECs were grown in vascular cell basal medium supplemented with endothelial cell growth kit. Cells were incubated in a humidified incubator at 37° C. under 5% CO2 and 95% air.
(§1) MTT assay was used to measure the viability of ARPE-19 cells and HUVECs. 2×10^5 ARPE-19 cells or 5×10^4 HUVECs were seeded in 96-well plates ([…]) and allowed to grow overnight. Negative control was prepared by adding 100 μl medium without cells. The cells were then treated with fresh medium with COMPOUND I (0.03, 0.1, 0.3, 1, 3 and 10 μg/ml) and/or oxidants (NaIO3, H2O2, t-BHP and NaN3) for 12, 24, or 72 hours (200 μl/well). The vehicle control group was treated with vehicle. 20 μl MTT (5 mg/ml) was added to wells, and incubated for another 4 h. After incubation, the medium was discarded and 100 μl DMSO was added to solubilize formazan produced from MTT by the viable cells. Absorbance was measured at 570 nm using a microplate reader (Bio-Rad Laboratories, Inc., CA). Cells viability was calculated according to the following formula: Viability of cells (%)=(absorbance in tested sample−absorbance in negative control)/(absorbance in vehicle control−absorbance in negative control)×100%.

ARPE-19 cells [2] = assay: t-BHP-induced injury in ARPE-19 cells (MTT); assay type: cell-based, human; conditions: 0.03 μg/ml to 10 µg/ml, 12 h
Description: as §1

[3] = tested on: Rabbit with Experimental Ocular Hypertension; assay: Ocular blood flow (colored microspheres) in rabbit with experimental ocular hypertension; assay type: in vivo, New Zealand white rabbits; conditions: 1% topical, 50 μl
Description: Rabbits were anesthetized with 35 mg/kg ketamine and 5 mg/kg Balanzine (10% xylazine) by intramuscular injection. Half of the initial dose was given every one hour thereafter. The left ventricle was cannulated through the right carotid artery for injection of colored microspheres and the femoral artery was cannulated for collection of blood samples. The left eye was treated with one drop of proparacaine hydrochloride ophthalmic solution (Bausch & Lomb, Inc., Tampa, Fla., USA). The needle was inserted directly into the anterior chamber of the left eye, which was connected to the 40 mmHg saline manometer. The ocular hypertensive model reduced the ocular blood flow to approximately one third of the normal valued. […] The ocular blood flow was measured by colored microspheres at 0, 30, 60 and 120 minutes after treatment with COMPOUND I or vehicle. […] The blood sample was collected in a heparinized tube and the volume was recorded. […]
The details of sample processing and microspheres counting were provided by E-Z Trac (Los Angeles, Calif., USA). […] The number of microspheres was counted by the hemocytometer under the microscope. […] The protocol thereafter was the same as that used to process the blood samples, and the microspheres were counted.
The blood flow of each tissue at a certain time point was calculated according to the following formula: Qm=(Cm×Qt)/Cr. […]

GFAP = GFAP levels in retina, Western Blot, streptozotocin-induced diabetic retinopathy; assay type: in vivo, Sprague-Dawley female rats
Description: After a 16-hour fasting, Sprague-Dawley female rats weighing 200-220 g received a single 60 mg/kg intraperitoneal injection of Streptozotocin (STZ; Sigma-Aldrich, St. Louis, Md.) in 10 mM sodium citrate buffer (pH 4.5; Sigma-Aldrich, St. Louis, Md.). Control rats were fasted and received the buffer solution alone. Rats with blood glucose levels higher than 375 mg/dL 7 days after receiving STZ were considered to be diabetic. Diabetic rats were treated with 1% COMPOUND I, 0.5% COMPOUND I or vehicle eye drops 3 time a day for 6 weeks.
After rats were sacrificed as described in last section, eyes were enucleated and bisected. Retinas were peeled from eyecups and immediately homogenized with 0.3 ml ice-cold lysis buffer ([…]; Sigma-Aldrich, St. Louis, Mo.), including 1 μl proteinase inhibitor cocktail ([…]; Sigma-Aldrich, St. Louis, Mo.). The insoluble material was removed by centrifugation at 12,000 g for 20 minutes. Final protein concentrations were determined using a protein assay kit (BCA, Santa Cruz Biotechnology, Santa Cruz, Calif.) according to manufacturer's specifications. The homogenate (80 μg) were separated by NuPAGE Bis-Tris Mini Gels (Invitrogen Life Technologies, Grand Island, N.Y.) and transferred to nitrocellulose membranes by iBlot Gel transfer Device (Invitrogen Life Technologies, Grand Island, N.Y.). The nitrocellulose membranes were treated by BenchPro 4100 Card Processing Station (Invitrogen Life Technologies, Grand Island, N.Y.) according to the instruction of WesternBreeze® Chromogenic Kit-Anti-Rabbit (Invitrogen Life Technologies, Grand Island, N.Y.). The primary antibodies used were anti-GFAP (1:200, Santa Cruz Biotechnology, Santa Cruz, Calif.) and glycealdehyde-3-phosphate dehydrogenase (GAPDH) (1:100), respectively. The Anti-rabbit IgG, AP-linked antibody was used as a second antibody. For quantitative evaluation of the western blot studies, the nitrocellulose membranes were scanned and the optical densities were quantified with analysis software (Pro-gel Analyzer software, Media Cybernetics, Rockville, Md.).

## COc1ccc(COc2c(/C=C/C(=O)NO)ccc(OC)c2CC=C(C)C)cc1 [COMPOUND I]
ARPE-19 cells [1]; 0.03 μg/ml to 1 μg/ml
  effect on cell growth: did not affect cell growth
ARPE-19 cells [1]; Homo sapiens, ARPE-19, 10 μg/ml
  inhibition at 10 µg/mL: 36%
ARPE-19 cells [2]
  effect on 200 μM t-BHP-induced injury: reversed
[3]; 30 minutes and 60 minutes after instillation
  blood flow in ciliary body and choroid: markedly increased
[3]; 120 minutes after instillation
  blood flow in all tissues (iris, ciliary body, retina, choroid): significantly increased
GFAP; 0.5% eye drops tid 6 weeks
  GFAP level (Western Blot), DR animals as 100%: 70%
GFAP; 1% and 0.5% tid. for 6 weeks
  expression of GFAP proteins in retina vs diabetic control, in words: significantly suppressed
GFAP; 1.0% eye drops tid 6 weeks
  GFAP level (Western Blot), DR rats as 100%: 46%
